According to patent US20240336654A1, “ANTIMICROBIAL PEPTIDOMIMETICS” (SPEXIS AG, priority 2021, published 2024):
Where a SMILES comes first, the peptide text is derived from it. Bridges are numbered along the chain shown (N, C = ends). [ ]: non-standard residue; d: D form. dDab(iPr) = CC(C)NCC[C@@H](N)C(=O)O; Hyp = O=C(O)[C@@H]1C[C@@H](O)CN1; dCit = NC(=O)NCCC[C@@H](N)C(=O)O; Cit = NC(=O)NCCC[C@H](N)C(=O)O; Pen = CC(C)(S)[C@H](N)C(=O)O; dDab = NCC[C@@H](N)C(=O)O; Dab = NCC[C@H](N)C(=O)O

How the values were obtained:
Format in all cases: cell-based
[1] = tested on: human red blood cells (hRBC); conditions: red cells of human, 1 h, 200 μg/mL
Summary of the method: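 Percent hemolysis derived from OD540 of supernatants relative to full lysis by 2.5% Triton X-100 (PBS baseline). Washed fresh human erythrocytes (20% v/v) were exposed to 200 μg/mL peptide for 1 h at 37 °C with shaking.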

[2] = tested on: Escherichia coli ATCC 25922; conditions: ATCC 25922
Summary of the method: (§1)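 CLSI broth microdilution, slightly modified: cation-adjusted Mueller-Hinton II broth with about 5×10^5 CFU/mL from a 0.5 McFarland suspension, and two-fold serial peptide dilutions with Polysorbate 80 at 0.002% final. MIC (μg/mL) was the lowest concentration with no visible growth after 18-20 hours at 35° C.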

[3] = tested on: Klebsiella pneumoniae SSI3010; conditions: SSI3010
Summary of the method: as §1

[4] = tested on: Escherichia coli MCR-1 Af 45; conditions: MCR-1 Af 45
Summary of the method: as §1

| Escherichia coli ATCC 25922 MIC [2] | Klebsiella pneumoniae SSI3010 MIC [3] | Escherichia coli MCR-1 Af45 MIC [4] | SMILES | Hemolysis at 0.2 g/L [1] |
| --- | --- | --- | --- | --- |
| 0.125 µg/mL | 0.125 µg/mL | 0.125 µg/mL | CC[C@H](C)[C@H](NC(=O)[C@@H]1C[C@@H](O)CN1C(=O)[C@@H](N)C(C)C)C(=O)N[C@@H]1C(=O)N[C@@H](Cc2ccc(O)cc2)C(=O)N[C@@H](CO)C(=O)N[C@@H](CC(N)=O)C(=O)N[C@@H](CCCNC(=N)N)C(=O)N[C@@H](CCN)C(=O)N[C@@H]([C@@H](C)O)C(=O)N[C@H](CCCNC(=N)N)C(=O)N[C@@H](CCCCN)C(=O)N[C@@H](CCN)C(=O)N[C@@H](CCN)C(=O)N[C@H](C(=O)N[C@@H](Cc2ccc(O)cc2)C(=O)O)CSSC1(C)C [Example 36, Val-Hyp-Ile-Pen-Tyr-Ser-Asn-Arg-Dab-Thr-^DArg-Lys-Dab-Dab-Cys-Tyr] (H-V[Hyp]I[Pen]YSNR[Dab]T[dR]K[Dab][Dab]CY-OH; disulfide 4-15) | <1% |
| 0.5 µg/mL | 0.5 µg/mL | 0.5 µg/mL | CC[C@H](C)[C@H](NC(=O)[C@@H]1C[C@@H](O)CN1C(=O)[C@@H](N)C(C)C)C(=O)N[C@@H]1C(=O)N[C@@H](Cc2ccc(O)cc2)C(=O)N[C@@H](CO)C(=O)N[C@@H](CC(N)=O)C(=O)N[C@@H](CCCNC(=N)N)C(=O)N[C@@H](CCN)C(=O)N[C@@H]([C@@H](C)O)C(=O)N[C@H](CCCNC(N)=O)C(=O)N[C@@H](CCCCN)C(=O)N[C@@H](CCN)C(=O)N[C@@H](CCN)C(=O)N[C@H](C(=O)N[C@@H](Cc2ccc(O)cc2)C(=O)O)CSSC1(C)C [Example 37, Val-Hyp-Ile-Pen-Tyr-Ser-Asn-Arg-Dab-Thr-^DCit-Lys-Dab-Dab-Cys-Tyr] (H-V[Hyp]I[Pen]YSNR[Dab]T[dCit]K[Dab][Dab]CY-OH; disulfide 4-15) | <1% |
| 0.125 µg/mL | 0.5 µg/mL | 0.125 µg/mL | CC[C@H](C)[C@H](NC(=O)[C@@H]1C[C@@H](O)CN1C(=O)[C@@H](N)C(C)C)C(=O)N[C@@H]1C(=O)N[C@@H](Cc2ccc(O)cc2)C(=O)N[C@@H](CO)C(=O)N[C@@H](CC(N)=O)C(=O)N[C@@H](CCCNC(=N)N)C(=O)N[C@@H](CCN)C(=O)N[C@@H]([C@@H](C)O)C(=O)N[C@H](CCNC(C)C)C(=O)N[C@@H](CCCCN)C(=O)N[C@@H](CCN)C(=O)N[C@@H](CCN)C(=O)N[C@H](C(=O)N[C@@H](Cc2ccc(O)cc2)C(=O)O)CSSC1(C)C [Example 38, Val-Hyp-Ile-Pen-Tyr-Ser-Asn-Arg-Dab-Thr-^DDab(iPr)-Lys-Dab-Dab-Cys-Tyr] (H-V[Hyp]I[Pen]YSNR[Dab]T[dDab(iPr)]K[Dab][Dab]CY-OH; disulfide 4-15) | <1% |
| 0.25 µg/mL | 0.5 µg/mL | 0.25 µg/mL | CC[C@H](C)[C@H](NC(=O)[C@@H]1C[C@@H](O)CN1C(=O)[C@@H](N)C(C)C)C(=O)N[C@@H]1C(=O)N[C@@H](Cc2ccc(O)cc2)C(=O)N[C@@H](CO)C(=O)N[C@@H](CC(N)=O)C(=O)N[C@@H](CCCNC(=N)N)C(=O)N[C@@H](CCN)C(=O)N[C@@H]([C@@H](C)O)C(=O)N[C@H](CCN)C(=O)N[C@@H](C)C(=O)N[C@@H](CCN)C(=O)N[C@@H](CCN)C(=O)N[C@H](C(=O)N[C@@H](Cc2ccc(O)cc2)C(=O)O)CSSC1(C)C [Example 39, Val-Hyp-Ile-Pen-Tyr-Ser-Asn-Arg-Dab-Thr-^DDab-Ala-Dab-Dab-Cys-Tyr] (H-V[Hyp]I[Pen]YSNR[Dab]T[dDab]A[Dab][Dab]CY-OH; disulfide 4-15) | <1% |
| 0.25 µg/mL | 0.5 µg/mL | 0.125 µg/mL | CC[C@H](C)[C@H](NC(=O)[C@@H]1C[C@@H](O)CN1C(=O)[C@@H](N)C(C)C)C(=O)N[C@@H]1C(=O)N[C@@H](Cc2ccc(O)cc2)C(=O)N[C@@H](CO)C(=O)N[C@@H](CC(N)=O)C(=O)N[C@@H](CCCNC(=N)N)C(=O)N[C@@H](CCN)C(=O)N[C@@H]([C@@H](C)O)C(=O)N[C@H](CCN)C(=O)N[C@@H](CCCNC(N)=O)C(=O)N[C@@H](CCN)C(=O)N[C@@H](CCN)C(=O)N[C@H](C(=O)N[C@@H](Cc2ccc(O)cc2)C(=O)O)CSSC1(C)C [Example 40, Val-Hyp-Ile-Pen-Tyr-Ser-Asn-Arg-Dab-Thr-^DDab-Cit-Dab-Dab-Cys-Tyr] (H-V[Hyp]I[Pen]YSNR[Dab]T[dDab][Cit][Dab][Dab]CY-OH; disulfide 4-15) | <1% |
| 0.125 µg/mL | 0.25 µg/mL | 0.125 µg/mL | CC[C@H](C)[C@H](NC(=O)[C@@H]1C[C@@H](O)CN1C(=O)[C@@H](N)C(C)C)C(=O)N[C@@H]1C(=O)N[C@@H](Cc2ccc(O)cc2)C(=O)N[C@@H](CO)C(=O)N[C@@H](CC(N)=O)C(=O)N[C@@H](CCCNC(=N)N)C(=O)N[C@@H](CCN)C(=O)N[C@@H]([C@@H](C)O)C(=O)N[C@H](CCN)C(=O)N[C@@H](Cc2ccc(O)cc2)C(=O)N[C@@H](CCN)C(=O)N[C@@H](CCN)C(=O)N[C@H](C(=O)N[C@@H](Cc2ccc(O)cc2)C(=O)O)CSSC1(C)C [Example 41, Val-Hyp-Ile-Pen-Tyr-Ser-Asn-Arg-Dab-Thr-^DDab-Tyr-Dab-Dab-Cys-Tyr] (H-V[Hyp]I[Pen]YSNR[Dab]T[dDab]Y[Dab][Dab]CY-OH; disulfide 4-15) | <1% |
| 0.125 µg/mL | 0.25 µg/mL | 0.125 µg/mL | CC[C@H](C)[C@@H]1NC(=O)[C@@H](CCN)NC(=O)[C@H]([C@@H](C)O)NC(=O)[C@H](CCN)NC(=O)[C@H](CCCNC(=N)N)NC(=O)[C@H](CC(N)=O)NC(=O)[C@H](CO)NC(=O)[C@H](Cc2ccc(O)cc2)NC(=O)[C@@H](NC(=O)[C@@H](NC(=O)[C@@H]2C[C@@H](O)CN2C(=O)[C@@H](N)C(C)C)[C@@H](C)CC)C(C)(C)SSC[C@@H](C(=O)N[C@@H](Cc2ccc(O)cc2)C(=O)O)NC(=O)[C@H](CCN)NC(=O)[C@H](CCN)NC1=O [Example 42, Val-Hyp-Ile-Pen-Tyr-Ser-Asn-Arg-Dab-Thr-^DDab-Ile-Dab-Dab-Cys-Tyr] (H-V[Hyp]I[Pen]YSNR[Dab]T[dDab]I[Dab][Dab]CY-OH; disulfide 4-15) | <1% |
| 0.25 µg/mL | 0.5 µg/mL | 0.25 µg/mL | CC[C@H](C)[C@H](NC(=O)[C@@H]1C[C@@H](O)CN1C(=O)[C@@H](N)C(C)C)C(=O)N[C@@H]1C(=O)N[C@@H](Cc2ccc(O)cc2)C(=O)N[C@@H](CO)C(=O)N[C@@H](CC(N)=O)C(=O)N[C@@H](CCCNC(=N)N)C(=O)N[C@@H](CCN)C(=O)N[C@@H]([C@@H](C)O)C(=O)N[C@H](CCN)C(=O)N[C@@H](CC(N)=O)C(=O)N[C@@H](CCN)C(=O)N[C@@H](CCN)C(=O)N[C@H](C(=O)N[C@@H](Cc2ccc(O)cc2)C(=O)O)CSSC1(C)C [Example 43, Val-Hyp-Ile-Pen-Tyr-Ser-Asn-Arg-Dab-Thr-^DDab-Asn-Dab-Dab-Cys-Tyr] (H-V[Hyp]I[Pen]YSNR[Dab]T[dDab]N[Dab][Dab]CY-OH; disulfide 4-15) | <1% |
| 0.25 µg/mL | 0.25 µg/mL | 0.125 µg/mL | CC[C@H](C)[C@H](NC(=O)[C@@H]1C[C@@H](O)CN1C(=O)[C@@H](N)C(C)C)C(=O)N[C@@H]1C(=O)N[C@@H](Cc2ccc(O)cc2)C(=O)N[C@@H](CO)C(=O)N[C@@H](CC(N)=O)C(=O)N[C@@H](CCCNC(=N)N)C(=O)N[C@@H](CCN)C(=O)N[C@@H]([C@@H](C)O)C(=O)N[C@H](CCN)C(=O)N[C@@H](CO)C(=O)N[C@@H](CCN)C(=O)N[C@@H](CCN)C(=O)N[C@H](C(=O)N[C@@H](Cc2ccc(O)cc2)C(=O)O)CSSC1(C)C [Example 44, Val-Hyp-Ile-Pen-Tyr-Ser-Asn-Arg-Dab-Thr-^DDab-Ser-Dab-Dab-Cys-Tyr] (H-V[Hyp]I[Pen]YSNR[Dab]T[dDab]S[Dab][Dab]CY-OH; disulfide 4-15) | <1% |
| 0.125 µg/mL | 0.0625 µg/mL | 0.125 µg/mL | CC[C@H](C)[C@H](NC(=O)[C@@H]1C[C@@H](O)CN1C(=O)[C@@H](N)C(C)C)C(=O)N[C@@H]1C(=O)N[C@@H](Cc2ccc(O)cc2)C(=O)N[C@@H](CCN)C(=O)N[C@@H](CC(N)=O)C(=O)N[C@@H](CCCNC(=N)N)C(=O)N[C@@H](CCN)C(=O)N[C@@H]([C@@H](C)O)C(=O)N[C@H](CCN)C(=O)N[C@@H](CCCCN)C(=O)N[C@@H](CO)C(=O)N[C@@H](CCN)C(=O)N[C@H](C(=O)N[C@@H](Cc2ccc(O)cc2)C(=O)O)CSSC1(C)C [Example 45, Val-Hyp-Ile-Pen-Tyr-Dab-Asn-Arg-Dab-Thr-^DDab-Lys-Ser-Dab-Cys-Tyr] (H-V[Hyp]I[Pen]Y[Dab]NR[Dab]T[dDab]KS[Dab]CY-OH; disulfide 4-15) | <1% |
| 0.5 µg/mL | 0.5 µg/mL | 0.25 µg/mL | CC[C@H](C)[C@H](NC(=O)[C@@H]1C[C@@H](O)CN1C(=O)[C@@H](N)C(C)C)C(=O)N[C@@H]1C(=O)N[C@@H](Cc2ccc(O)cc2)C(=O)N[C@@H](CO)C(=O)N[C@@H](CC(N)=O)C(=O)N[C@@H](CCCNC(=N)N)C(=O)N[C@@H](CCN)C(=O)N[C@@H]([C@@H](C)O)C(=O)N[C@H](CCN)C(=O)N[C@@H](CCCCN)C(=O)N[C@@H](C)C(=O)N[C@@H](CCN)C(=O)N[C@H](C(=O)N[C@@H](Cc2ccc(O)cc2)C(=O)O)CSSC1(C)C [Example 46, Val-Hyp-Ile-Pen-Tyr-Ser-Asn-Arg-Dab-Thr-^DDab-Lys-Ala-Dab-Cys-Tyr] (H-V[Hyp]I[Pen]YSNR[Dab]T[dDab]KA[Dab]CY-OH; disulfide 4-15) | <1% |
